Source: ChEMBL document CHEMBL1157631, “Discovery and SAR of thiazolidine-2,4-dione analogues as insulin-like growth factor-1 receptor (IGF-1R) inhibitors via hierarchical virtual screening” (J Med Chem, 2010)
Active and inactive are the calls of the source. No cut-off for these calls is given here.

Key:
Insulin receptor = Insulin receptor (Homo sapiens, UniProt P06213); test: Inhibition of IR by ELISA
MCF7 = test: Antiproliferative activity against human MCF7 cells after 72 hrs by SRB assay; type: functional, cell-based; conditions: MCF7, 72 h
[1] = target: Insulin-like growth factor 1 receptor (Homo sapiens, UniProt P08069); test: Inhibition of IGF1R by ELISA
[2] = Dissociation constant, pKa of the compound; type: physicochemical
[3] = target: Proto-oncogene tyrosine-protein kinase Src (Homo sapiens) (UniProt P12931); test: Inhibition of c-Src at 10 uM
Chain of Proto-oncogene tyrosine-protein kinase Src (Homo sapiens) (P12931 2-536 limits assumed): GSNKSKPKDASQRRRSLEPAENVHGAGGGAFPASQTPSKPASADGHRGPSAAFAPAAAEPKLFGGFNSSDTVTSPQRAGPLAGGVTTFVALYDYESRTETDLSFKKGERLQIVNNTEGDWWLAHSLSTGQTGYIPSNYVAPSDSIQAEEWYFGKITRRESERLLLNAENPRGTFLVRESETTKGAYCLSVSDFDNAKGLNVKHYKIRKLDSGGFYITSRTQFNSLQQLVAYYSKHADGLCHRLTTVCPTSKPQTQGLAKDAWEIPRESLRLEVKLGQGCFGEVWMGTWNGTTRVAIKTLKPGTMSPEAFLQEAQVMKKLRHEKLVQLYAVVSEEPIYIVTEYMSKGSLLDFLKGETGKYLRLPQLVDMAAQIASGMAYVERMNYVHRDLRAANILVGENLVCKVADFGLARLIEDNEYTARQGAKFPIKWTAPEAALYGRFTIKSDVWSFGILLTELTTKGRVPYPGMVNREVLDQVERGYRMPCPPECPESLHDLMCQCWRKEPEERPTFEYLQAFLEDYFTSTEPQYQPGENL

Chain of Insulin receptor (P06213 28-758 limits assumed): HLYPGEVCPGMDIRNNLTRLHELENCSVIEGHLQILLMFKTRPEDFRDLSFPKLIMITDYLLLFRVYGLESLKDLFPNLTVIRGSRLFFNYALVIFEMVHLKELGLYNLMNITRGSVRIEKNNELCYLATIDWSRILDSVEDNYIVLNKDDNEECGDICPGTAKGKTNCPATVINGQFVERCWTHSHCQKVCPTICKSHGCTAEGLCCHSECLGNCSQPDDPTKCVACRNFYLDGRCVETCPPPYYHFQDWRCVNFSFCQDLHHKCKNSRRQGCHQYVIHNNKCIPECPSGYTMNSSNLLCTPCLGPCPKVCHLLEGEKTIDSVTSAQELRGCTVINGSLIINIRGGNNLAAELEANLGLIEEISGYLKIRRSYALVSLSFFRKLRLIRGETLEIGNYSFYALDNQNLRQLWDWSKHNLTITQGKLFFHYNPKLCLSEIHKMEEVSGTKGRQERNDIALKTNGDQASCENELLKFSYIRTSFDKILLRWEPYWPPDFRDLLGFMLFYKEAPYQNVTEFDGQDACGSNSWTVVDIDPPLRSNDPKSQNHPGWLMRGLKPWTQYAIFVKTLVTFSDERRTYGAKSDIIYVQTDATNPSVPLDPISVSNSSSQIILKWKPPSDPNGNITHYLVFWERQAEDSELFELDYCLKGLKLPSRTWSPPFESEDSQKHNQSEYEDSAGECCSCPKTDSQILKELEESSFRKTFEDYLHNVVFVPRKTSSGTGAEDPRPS
Chain of Insulin receptor (P06213 763-1382 limits assumed): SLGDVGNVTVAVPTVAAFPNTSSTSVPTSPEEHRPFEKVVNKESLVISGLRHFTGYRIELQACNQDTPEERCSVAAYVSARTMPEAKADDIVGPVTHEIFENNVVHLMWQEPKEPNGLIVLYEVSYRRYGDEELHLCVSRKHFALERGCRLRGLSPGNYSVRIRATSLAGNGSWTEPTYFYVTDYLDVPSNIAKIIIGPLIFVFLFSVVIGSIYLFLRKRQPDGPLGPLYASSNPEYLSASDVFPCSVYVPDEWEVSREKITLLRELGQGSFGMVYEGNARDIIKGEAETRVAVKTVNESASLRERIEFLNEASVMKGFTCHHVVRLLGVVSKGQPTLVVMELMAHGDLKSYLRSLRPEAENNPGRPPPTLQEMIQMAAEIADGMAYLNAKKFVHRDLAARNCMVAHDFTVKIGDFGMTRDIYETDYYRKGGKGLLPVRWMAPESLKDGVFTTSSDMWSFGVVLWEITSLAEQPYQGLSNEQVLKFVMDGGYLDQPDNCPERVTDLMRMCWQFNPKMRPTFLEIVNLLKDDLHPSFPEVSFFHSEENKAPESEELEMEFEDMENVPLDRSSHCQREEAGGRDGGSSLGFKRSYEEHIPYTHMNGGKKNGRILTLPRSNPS
Chain of Insulin-like growth factor 1 receptor (P08069 31-736 limits assumed): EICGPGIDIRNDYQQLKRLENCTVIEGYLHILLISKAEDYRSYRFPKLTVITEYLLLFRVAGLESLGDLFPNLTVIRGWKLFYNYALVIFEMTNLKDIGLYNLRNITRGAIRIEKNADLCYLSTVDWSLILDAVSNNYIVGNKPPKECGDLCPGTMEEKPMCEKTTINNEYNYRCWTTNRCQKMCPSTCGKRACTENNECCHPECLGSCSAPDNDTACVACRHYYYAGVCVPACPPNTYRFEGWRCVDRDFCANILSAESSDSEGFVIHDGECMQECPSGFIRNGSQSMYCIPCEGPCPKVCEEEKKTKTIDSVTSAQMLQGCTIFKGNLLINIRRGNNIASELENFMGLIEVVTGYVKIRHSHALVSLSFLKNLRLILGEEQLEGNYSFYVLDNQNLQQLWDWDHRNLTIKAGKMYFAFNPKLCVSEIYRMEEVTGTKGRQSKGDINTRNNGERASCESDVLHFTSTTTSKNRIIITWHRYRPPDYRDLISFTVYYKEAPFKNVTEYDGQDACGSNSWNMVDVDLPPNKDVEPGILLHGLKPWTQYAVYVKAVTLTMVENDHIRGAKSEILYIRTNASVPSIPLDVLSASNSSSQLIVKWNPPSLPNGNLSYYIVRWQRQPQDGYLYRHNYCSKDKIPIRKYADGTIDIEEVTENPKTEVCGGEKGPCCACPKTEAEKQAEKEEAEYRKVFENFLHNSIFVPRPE
Chain of Insulin-like growth factor 1 receptor (P08069 741-1367 limits assumed): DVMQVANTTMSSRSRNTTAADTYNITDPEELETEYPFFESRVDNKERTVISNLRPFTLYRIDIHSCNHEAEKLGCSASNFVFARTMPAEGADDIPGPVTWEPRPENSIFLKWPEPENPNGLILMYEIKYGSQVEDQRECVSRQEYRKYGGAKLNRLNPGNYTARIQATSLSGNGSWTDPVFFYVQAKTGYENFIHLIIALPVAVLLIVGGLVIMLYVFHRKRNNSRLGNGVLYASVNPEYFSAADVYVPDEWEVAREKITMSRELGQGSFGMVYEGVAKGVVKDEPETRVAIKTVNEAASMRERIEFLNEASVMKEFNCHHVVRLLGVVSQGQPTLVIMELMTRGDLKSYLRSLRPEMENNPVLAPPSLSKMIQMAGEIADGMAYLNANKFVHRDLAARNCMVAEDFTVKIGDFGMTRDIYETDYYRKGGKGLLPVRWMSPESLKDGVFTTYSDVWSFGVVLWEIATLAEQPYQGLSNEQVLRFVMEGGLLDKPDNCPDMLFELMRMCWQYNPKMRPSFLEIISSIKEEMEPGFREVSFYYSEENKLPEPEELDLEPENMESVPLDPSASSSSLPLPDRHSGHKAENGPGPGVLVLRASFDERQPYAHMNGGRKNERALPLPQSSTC

| SMILES | IC50 (Insulin receptor) [µM] | IC50 (MCF7) [µM] | IC50 [1] [µM] | pKa [2] | Activity [3] |
| --- | --- | --- | --- | --- | --- |
| O=C1NC(=O)/C(=C\c2ccc(-c3cccc(Br)c3)o2)S1 | 28 | 25.3 | 0.057 |  |  |
| CCOc1cc(/C=C2/SC(=O)NC2=O)cc(Cl)c1OCC |  |  | 49.8 |  |  |
| O=C1NC(=S)S/C1=C\c1ccc(-c2ccc(C(=O)O)cc2)o1 |  | 41.9 |  |  |  |
| O=C1NC(=O)/C(=C\c2cccc([N+](=O)[O-])c2)S1 | > 100 | 55.8 | 4.9 |  |  |
| COc1cc(/C=C2/SC(=O)NC2=O)ccc1OCc1ccccc1 |  |  | > 100 |  |  |
| O=C1NC(=O)/C(=C/c2cccc(OCc3ccc(Cl)cc3Cl)c2)S1 | > 100 | 25.2 | 1.6 |  |  |
| COc1c(Br)cc(/C=C2\SC(=O)NC2=O)cc1Br | 65.3 |  | 6.4 |  |  |
| O=C1NC(=O)/C(=C/c2ccc(-c3ccc(O)c(C(=O)O)c3)o2)S1 |  | 81.3 |  |  |  |
| CCC(C)COc1ccccc1/C=C1/SC(=O)NC1=O (stereo not given) | > 100 | > 100 | 9 |  |  |
| O=C1NC(=O)/C(=C\c2ccc(-c3ccc(F)cc3)o2)S1 | > 100 | 36.9 | 0.4 |  |  |
| COc1cc(/C=C2/SC(=O)NC2=O)cc(OC)c1O | > 100 |  | 5.3 |  |  |
| O=C1NC(=O)/C(=C/c2ccc(Cl)cc2Cl)S1 | > 100 | > 100 | 15 |  |  |
| O=C1NC(=O)/C(=C\c2ccccc2OCc2ccc(Cl)cc2Cl)S1 |  |  | > 100 |  |  |
| CCCOc1c(Br)cc(/C=C2\SC(=O)NC2=O)cc1OCC |  |  | > 100 |  |  |
| CCOc1cc2c(cc1/C=C1\SC(=O)NC1=O)OCO2 | > 100 | > 100 | 10 |  |  |
| O=C1NC(=O)/C(=C\c2ccc(-c3cccc(Cl)c3Cl)o2)S1 | > 100 | 21.5 | 3.4 |  |  |
| Cc1ccc(-c2ccc(/C=C3/SC(=O)NC3=O)o2)c(Br)c1 | > 100 |  | 6.3 |  |  |
| O=C1NC(=O)/C(=C\c2ccc(OCc3ccccc3Cl)cc2)S1 |  |  | > 100 |  |  |
| O=C1NC(=O)/C(=C\c2ccc(-c3ccc(Cl)c(Cl)c3)o2)S1 |  | 14.8 |  | 7.9 |  |
| CCOc1cc(/C=C2\SC(=O)NC2=O)c(Br)cc1OC |  |  | > 100 |  |  |
| O=C1NC(=O)/C(=C\c2ccc(-c3ccc(Cl)cc3Cl)o2)S1 |  | 17.3 |  |  |  |
| COc1cc(Br)cc(/C=C2\SC(=O)NC2=O)c1O | > 100 |  |  |  | Active |

Now from value to compound:

| IC50 (Insulin receptor) [µM] | IC50 (MCF7) [µM] | IC50 [1] [µM] | pKa [2] | Activity [3] | SMILES |
| --- | --- | --- | --- | --- | --- |
| > 100 | 87.3 |  |  |  | CCOc1ccc(/C=C2/SC(=O)NC2=O)cc1OC |
| > 100 | > 100 | 8.6 |  |  | CCOc1cccc(/C=C2/SC(=O)NC2=O)c1O |
| > 100 | 50.8 | 6.3 |  |  | COc1cc(/C=C2/SC(=O)NC2=O)cc(I)c1O |
| > 100 | 50.8 | 8.8 |  |  | O=C1NC(=O)/C(=C\c2ccc(Cl)c(Cl)c2)S1 |
|  |  | > 100 |  |  | COc1cc(/C=C2\SC(=O)NC2=O)ccc1OCc1ccc(Cl)cc1Cl |
|  | > 100 |  |  |  | O=C1NC(=S)S/C1=C\c1ccc(-c2ccccc2Cl)o1 |
|  |  | > 100 |  |  | C=CCc1cc(/C=C2\SC(=O)NC2=O)cc(OC)c1OC |
|  |  | > 100 |  |  | O=C1NC(=O)/C(=C\c2ccc(N3CCCC3)c(F)c2)S1 |
| > 100 |  |  |  |  | CCOc1cc(Br)cc(/C=C2\SC(=O)NC2=O)c1O |
| > 100 | 16.9 | 0.28 |  |  | O=C1NC(=O)/C(=C\c2ccc(-c3ccc(F)c(Cl)c3)o2)S1 |
| > 100 | > 100 | 6.6 |  |  | O=C1NC(=O)/C(=C/c2ccccc2F)S1 |
|  |  | 63.9 |  |  | CCOc1ccc(/C=C2\SC(=O)NC2=O)cc1OCC(C)C |
| > 100 | 24.8 | 3.3 |  |  | O=C1NC(=O)/C(=C\c2cc3c(cc2Br)OCO3)S1 |
|  |  | > 100 |  |  | CCCCOc1ccc(/C=C2\SC(=O)NC2=O)cc1 |
| > 100 | 47.3 | 6.7 |  |  | O=C1NC(=O)/C(=C\c2ccc(-c3ccc(Br)cc3)o2)S1 |
|  |  | 0.009 |  |  | Cc1ccc(N2CCC(N3CCN(C(=O)N4CCOCC4)CC3)CC2)c2[nH]c(-c3c(N[C@@H](CO)Cc4ccccc4Br)cc[nH]c3=O)nc12 |
| > 100 |  | 11.1 |  |  | CCc1ccc(/C=C2\SC(=O)NC2=O)cc1 |
| > 100 | 56.3 | 5.2 |  |  | CCOc1cc(/C=C2/SC(=O)NC2=O)cc(Br)c1O |
|  |  | 0.319 |  |  | CCC(=O)c1cccc(Nc2ccc3c(c2)/C(=C/Nc2ccc(N4CCN(C)CC4)cc2)C(=O)NC3=O)c1 |
